Measured values: patent US10039753B2, “Imidazo[4,5-c]quinoline and imidazo[4,5-c][1,5]naphthyridine derivatives as LRRK2 inhibitors” (Pfizer Inc., priority 2015, dated 2018)
Where a name gives a salt, the structure may show the parent alone.

Legend:
[1] = target: T1, GST-tagged truncated LRRK2 (Homo sapiens, UniProt Q5S007); assay: LRRK2 Assay, Format 2 (Lantha Screen), WT; format: biochemical; conditions: geometric mean of 2-4 determinations unless otherwise indicated (a: >=5; b: single determination)
T1 construct: GST-tagged truncated LRRK2 from Invitrogen (Cat # PV4874); GST; purchased Invitrogen PV4874

mutant G2019S LRRK2 = mutant G2019S LRRK2 (Homo sapiens, UniProt Q5S007, G2019S); assay: LRRK2 Assay, Format 2 (Lantha Screen), G2019S mutant; format: biochemical; parameters: purchased Invitrogen PV4881; conditions: geometric mean of 2-4 determinations unless otherwise indicated (a: >=5; b: single determination); read-out: LRRK2, Format 2 G2019S IC50
Sequence of mutant G2019S LRRK2 (Q5S007 970-2527 G2019S limits assumed): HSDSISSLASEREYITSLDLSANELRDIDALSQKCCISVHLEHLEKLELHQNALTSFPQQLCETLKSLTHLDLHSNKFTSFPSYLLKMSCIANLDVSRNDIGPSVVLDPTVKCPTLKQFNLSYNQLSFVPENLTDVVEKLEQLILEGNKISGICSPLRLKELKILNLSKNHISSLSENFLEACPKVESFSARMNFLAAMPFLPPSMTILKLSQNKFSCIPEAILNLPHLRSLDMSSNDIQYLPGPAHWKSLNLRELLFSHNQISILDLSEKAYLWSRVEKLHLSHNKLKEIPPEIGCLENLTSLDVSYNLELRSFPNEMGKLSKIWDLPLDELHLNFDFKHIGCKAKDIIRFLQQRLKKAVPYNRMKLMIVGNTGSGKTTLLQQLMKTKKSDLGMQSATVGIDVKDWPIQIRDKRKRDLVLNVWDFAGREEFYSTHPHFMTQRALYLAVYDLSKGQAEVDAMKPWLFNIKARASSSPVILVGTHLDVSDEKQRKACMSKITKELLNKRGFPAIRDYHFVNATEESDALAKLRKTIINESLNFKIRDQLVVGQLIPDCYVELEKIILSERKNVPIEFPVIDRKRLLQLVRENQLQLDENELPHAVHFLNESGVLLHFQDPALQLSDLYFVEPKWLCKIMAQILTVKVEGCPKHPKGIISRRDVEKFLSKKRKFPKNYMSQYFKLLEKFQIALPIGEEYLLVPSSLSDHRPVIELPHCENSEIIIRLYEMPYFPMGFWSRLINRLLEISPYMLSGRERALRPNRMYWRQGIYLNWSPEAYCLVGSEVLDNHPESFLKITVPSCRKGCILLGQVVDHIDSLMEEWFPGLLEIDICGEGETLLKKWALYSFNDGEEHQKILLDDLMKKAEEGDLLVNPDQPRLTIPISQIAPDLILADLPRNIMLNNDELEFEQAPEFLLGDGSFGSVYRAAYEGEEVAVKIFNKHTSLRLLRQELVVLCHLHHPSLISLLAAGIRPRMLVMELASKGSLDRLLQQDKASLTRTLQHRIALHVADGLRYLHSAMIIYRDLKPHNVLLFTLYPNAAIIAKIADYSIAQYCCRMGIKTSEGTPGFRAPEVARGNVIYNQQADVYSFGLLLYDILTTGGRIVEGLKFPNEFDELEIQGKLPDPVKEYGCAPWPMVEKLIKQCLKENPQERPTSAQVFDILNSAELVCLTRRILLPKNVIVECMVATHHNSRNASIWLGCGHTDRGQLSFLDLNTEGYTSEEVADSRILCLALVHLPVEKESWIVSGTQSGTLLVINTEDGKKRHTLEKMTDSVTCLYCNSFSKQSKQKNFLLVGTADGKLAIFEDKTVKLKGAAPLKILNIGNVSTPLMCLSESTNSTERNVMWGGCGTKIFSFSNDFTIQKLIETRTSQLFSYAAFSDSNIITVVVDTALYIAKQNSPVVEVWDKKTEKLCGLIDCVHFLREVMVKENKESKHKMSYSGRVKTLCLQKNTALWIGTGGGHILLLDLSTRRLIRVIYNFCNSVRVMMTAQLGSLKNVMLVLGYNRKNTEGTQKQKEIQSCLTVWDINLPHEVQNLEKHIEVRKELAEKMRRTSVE

T1 sequence (Q5S007 970-2527 limits assumed): as the sequence (Q5S007 970-2527 G2019S limits assumed) above, with S1050G counted along it

Row | Compound | IC50 [1] | IC50 (mutant G2019S LRRK2)
1 | Cc1cc(Cc2nc3cnc4ccc(Cl)cc4c3n2[C@@H]2CCO[C@H](CF)C2)no1 [Example 221, 8-chloro-1-[(2S,4R)-2-(fluoromethyl)tetrahydro-2H-pyran-4-yl]-2-[(5-methyl-1,2-oxazol-3-yl)methyl]-1H-imidazo[4,5-c]quinoline] | 3.19 nM | 2.89 nM
2 | Cc1cn(Cc2nc3cnc4ccc(F)cc4c3n2[C@@H]2CCO[C@H](C)C2)nn1 [Example 199, 8-fluoro-1-[(2R,4R)-2-methyltetrahydro-2H-pyran-4-yl]-2-[(4-methyl-1H-1,2,3-triazol-1-yl)methyl]-1H-imidazo[4,5-c]quinoline] | 10.3 nM | 11.8 nM
3 | Cc1cn(Cc2nc3cnc4ccc(Cl)cc4c3n2[C@H]2CC[C@@H](F)C2)nn1 (single isomer, unassigned) [Example 93, 8-Chloro-1-(cis-3-fluorocyclopentyl)-2-[(4-methyl-1H-1,2,3-triazol-1-yl)methyl]-1H-imidazo[4,5-c]quinoline] | 5.62 nM | 8.18 nM
4 | Cc1ccc(Cc2nc3cnc4ccc(Cl)cc4c3n2[C@@H]2CCO[C@H](C)C2)nc1 [Example 100, 8-Chloro-2-[(5-methylpyridin-2-yl)methyl]-1-[(2R,4R)-2-methyltetrahydro-2H-pyran-4-yl]-1H-imidazo[4,5-c]quinoline] | 4.74 nM | 5.01 nM
5 | Cc1nc(Cc2nc3cnc4ccc(C#N)cc4c3n2[C@@H]2CCO[C@H](C)C2)no1 [Example 123, 2-[(5-methyl-1,2,4-oxadiazol-3-yl)methyl]-1-[(2R,4R)-2-methyltetrahydro-2H-pyran-4-yl]-1H-imidazo[4,5-c]quinoline-8-carbonitrile] | 9.25 nM | 8.91 nM
6 | Cc1cc(Cc2nc3cnc4ccc(Cl)cc4c3n2[C@@H]2CCO[C@H](CO)C2)no1 [Example 137, [(2S,4R)-4-{8-chloro-2-[(5-methyl-1,2-oxazol-3-yl)methyl]-1H-imidazo[4,5-c]quinolin-1-yl}tetrahydro-2H-pyran-2-yl]methanol] | 14.1 nM | 12 nM
7 | C[C@@H]1C[C@H](n2c(Cc3cc(CO)on3)nc3cnc4ccc(Cl)cc4c32)CCO1 [Example 138] | 2.89 nM | 3.72 nM
8 | C[C@@H]1C[C@H](n2c(Cc3cncs3)nc3cnc4ccc(C#N)cc4c32)CCO1 [Example 231, 1-[(2R,4R)-2-methyltetrahydro-2H-pyran-4-yl]-2-(1,3-thiazol-5-ylmethyl)-1H-imidazo[4,5-c]quinoline-8-carbonitrile, formate salt] | 24.9 nM | 26.6 nM
9 | C[C@@H]1C[C@H](n2c(Cn3cc(C(F)(F)F)nn3)nc3cnc4ccc(Cl)cc4c32)CCO1 [Example 99, 8-Chloro-1-[(2R,4R)-2-methyltetrahydro-2H-pyran-4-yl]-2-{[4-(trifluoromethyl)-1H-1,2,3-triazol-1-yl]methyl}-1H-imidazo[4,5-c]quinoline, formate salt] | 5.84 nM | 5.42 nM
10 | C[C@@H]1C[C@H](n2c(Cc3cc4n(n3)CCC4)nc3cnc4ccc(Cl)cc4c32)CCO1 [Example 166, 8-chloro-2-(5,6-dihydro-4H-pyrrolo[1,2-b]pyrazol-2-ylmethyl)-1-[(2R,4R)-2-methyltetrahydro-2H-pyran-4-yl]-1H-imidazo[4,5-c]quinoline, trifluoroacetate salt] | 7.35 nM | 7.38 nM
11 | CC1(C)CC(n2c(Cc3cc(C(F)(F)F)on3)nc3cnc4ccc(C#N)cc4c32)CCO1 (single isomer, unassigned; ent-1) [Example 176, 1-(2,2-dimethyltetrahydro-2H-pyran-4-yl)-2-{[5-(trifluoromethyl)-1,2-oxazol-3-yl]methyl}-1H-imidazo[4,5-c]quinoline-8-carbonitrile, ENT-1] | 13 nM | 12.7 nM
12 | Cc1cc(Cc2nc3cnc4ccc(C#N)cc4c3n2[C@@H]2CCN(C)C2)no1 [Example 213, 2-[(5-methyl-1,2-oxazol-3-yl)methyl]-1-[(3R)-1-methylpyrrolidin-3-yl]-1H-imidazo[4,5-c]quinoline-8-carbonitrile, formate salt] | 3.38 nM | 7.03 nM
